These results are taken from patent US6844354B1, “Agent for prophylaxis and treatment of interstitial pneumonia and pulmonary fibrosis” (Mitsubishi Pharma Corporation, priority 1999, dated 2005).

For data set [1], the system named is bleomycin-induced interstitial pneumonia (pulmonary fibrosis) model. In words: Hydroxyproline content in bleomycin-induced interstitial pneumonia (pulmonary fibrosis) model. It counts as in vivo, mouse. To be noted: day 40. Here is the method: (§1) Female C57BL/6 mice (about 15 g, 6-week-old) in 4 mice per group (n=4) were intraperitoneally administered with bleomycin 5 times a day every other day (total dose: 200 mg/kg) to prepare a model with bleomycin-induced interstitial pneumonia (pulmonary fibrosis).
(§2) Using the bleomycin-induced interstitial pneumonia (pulmonary fibrosis) model prepared in Experimental Example 1, the effect of the present invention on induced interstitial pneumonia (pulmonary fibrosis) was examined.
(§3) Y-27632 was intraperitoneally administered immediately before bleomycin administration from the first day of bleomycin administration (0th) to day 8 (5th administration), and thereafter until day 40, by way of a single, alternate-day administration. At day 40, the level of fibrosis was checked by hydroxyproline content and tissue staining. The hydroxyproline content was measured according to the report of Tran et al. (Tran et al., J. Clin. Invest., 99: 608-617, 1997). The degree of fibrosis by tissue staining was evaluated by the Aschcroft score (Aschcroft et al., J. Clin. Pathol., 41: 467-70, 1988).
The suppression percentage was calculated based on the bleomycin alone administration group as 0% suppression, and the physiological saline administration group as 100% suppression.

The test system of another data set is mouse neutrophil. Kind of data set: Cell chemotaxis (Boyden chamber), mouse neutrophil. Format: cell-based. To be noted: 1.5 h, neutrophils, migration by IL-1. (5 ng/ml), 37° C. 90 min, n=6, mean±SEM, read-out: IC50 of suppression of migration. Here is the method: (§4) Mouse alveolar macrophage-derived cell line (MH-S cell), fibroblast (NIH3T3 cell) and mouse neutrophil were used. Casein was intraperitoneally administered to the mouse and the mouse neutrophil was isolated from ascites thereof after 6 h. The cell chemotaxis was measured by a Boyden chamber (chemotaxicell, KURABO, Japan). The pore size of the filter used was 5 μm for MH-S cell and neutrophil, and 8 μm for NIH3T3 cell. As a chemotactic factor, lipopolysaccharide (LPS, E.coli: B-4, Sigma, St Louis, Mo., USA) was used for MH-S cell, mouse interleukin 1β (IL-1β, Genzyme/techne, USA) was used for neutrophil, and a […] (PDGF-BB, UBI, Lake Placid, USA) was used for NIH3T3 cell. The chemotactic factors were added to a lower layer and Y-27632 were added to a higher layer at various concentrations. The reaction was carried out at 37° C. for 120 min for MH-S cell and NIH3T3 cell and 37° C. for 90 min for neutrophil. After the completion of the reaction, migrated cells were stained with Giemsa (Muto, CO., Ltd, Japan) and the cells were counted. The value is in mean±SEM.

The next data set has as its system fibroblast (NIH3T3 cell). Kind of data set: Cell chemotaxis (Boyden chamber), NIH3T3 cell. To be noted: Mus musculus, 2 h; NIH3T3 cells, migration by PDGF-BB (10 ng/ml), 37° C. 120 min, n=6, mean±SEM; read-out: IC50 of suppression of migration. It counts as cell-based. Here is the method: as §4
In data set [2] the test system is bleomycin-induced interstitial pneumonia (pulmonary fibrosis) model. Kind of data set: Number of inflammatory cells in bronchoalveolar lavage fluid (BALF) in bleomycin-induced model. Format: in vivo, mouse. Here is the method: as §1
Using the pulmonary fibrosis model administered with bleomycin as in Experimental Example 1, the effect of Y-27632 on the number of various inflammatory cells in BALF was examined.
The dose of Y-27632 was administered every other day at the lo dose of 100 μg/kg in the same manner as in Experimental Example 2. BALF was recovered at day 7, day 14, day 21 and day 40 from the start of the bleomycin administration, and the number of total cells, macrophages, lymphocytes and neutrophils was counted (n=5). The number of total cells was measured by a hemocytometer. Smear preparations of the various cells in BALF were prepared by cytospin (Auto Smer CF-12D, Chiyoda seisakusho, Tokyo, Japan), stained with May-Gruenwald and subjected to the counting under a microscope.
The results are shown in mean±SEM (n=5). For the test, (Satical analysis was performed One-way ANOVA test followed by Fisher's least significance test) was performed (*p<0.05; BLM group vs Y-27632 group) (§p<0.05; BLM group vs Normal group) (+p<0.05; Y-27632 group vs Normal group).

Data set [3] shares this test system. Kind of data set: Pulmonary fibrosis level by tissue staining (Aschcroft score) in bleomycin-induced model. Conditions: day 40. Format: in vivo, mouse. Here is the method: as §1, §2, §3
Y-27632 suppressed the increase of Aschcroft score due to bleomycin administration at the dose of not less than 10 μg/kg (Table 2). In the Table, *:p<0.05, **:p<0.01.

Data set [4] has as its system Mouse alveolar macrophage-derived cell line (MH-S cell). Kind of data set: Cell chemotaxis (Boyden chamber), MH-S cell. To be noted: 2 h, MH-S cells, migration by LPS (1 μg/ml), 37° C. 120 min, n=6, mean±SEM, read-out: IC50 of suppression of migration. Format: cell-based. Here is the method:
as §4

In a further data set the test system is ROCK-II gene. Kind of data set: Expression of ROCK-II gene in the lung, real time quantitative RT-PCR. It counts as in vivo, mouse. Here is the method:
as §1
The expression of ROCK-II gene in the lung at 7, 14, 21 and 40 days after the start of the bleomycin administration was measured, and so was the value of an animal free of bleomycin administration. The amount of the expression of the ROCK-II gene was measured according to a real time quantitative RT-PCR method. As the primer, the following sequence was used [forward: CATGGTGCATTGCGACACA (SEQ ID No. 1), reverse: […] (SEQ ID No. 2)]. The amount of expression of the ROCK-II gene was expressed relatively in [(Rock-II m RNA)/(GAPDH m RNA)] using the expression amount of GAPDH (glyceraldehyde-3-phosphate dehydrogenase) gene as a standard. The results are shown in mean±SEM (n=4). For the test, (Satical analysis was performed One-way ANOVA test followed by Fisher's least significance test) was performed.

Where [5] appears, read: Y-27632 alone 1000 μg/kg (no bleomycin).
[6] abbreviates: Y-27632 100 μg/kg every other day vs BLM group, days 7-40.

Marks after values point to notes of the source that are not given here.

Regarding `C[C@@H](N)[C@H]1CC[C@H](C(=O)Nc2ccncc2)CC1` [Y-27632, (+)-trans-4-(1-aminoethyl)-1-(4-pyridylcarbamoyl)cyclohexane 2HCl.1H2O], the “Suppression (%) of the increase of hydroxyproline content” value in data set [1] (setting [5]) is given as 92.1%; in data set [1] (bleomycin + Y-27632 0.01 μg/kg i.p. alternate-day), −10.6%; in data set [1] (bleomycin + Y-27632 0.1 μg/kg i.p. alternate-day) it was 28.2%; in data set [1] (bleomycin + Y-27632 1 μg/kg i.p. alternate-day), 30.0%; in data set [1] (bleomycin + Y-27632 10 μg/kg i.p. alternate-day), 38.6%; in data set [1] (bleomycin + Y-27632 100 μg/kg i.p. alternate-day), 53.8%. Besides, in data set [1] (i.p. alternate-day), the “Effect on the increase of hydroxyproline content due to bleomycin administration” value is “dose-dependently suppressed”. Further, the values for the IC50 (in the data set with mouse neutrophil; in the data set on fibroblast (NIH3T3 cell); in data set [4]) were 8.4 ± 2.1 µM, 1.6 ± 0.5 µM and 4.8 ± 2 µM, respectively. Further, in data set [2] (setting [6]), the “Number of macrophages in BALF” value was “significantly lower results than BLM group”. Further, the “Number of neutrophils in BALF” value in data set [2] (setting [6]) is “significantly lower results than BLM group”. Besides, the “Number of total cells in BALF” value in data set [2] (setting [6]) was “significantly lower results than BLM group”. For the same compound, in data set [2] (Y-27632 100 μg/kg every other day, BLM, Y-27632 and Normal groups), the “Lymphocyte counts in BALF” value was “did not show a significant difference among 3 groups”. Also, the “Aschcroft score (mean ± standard error)” value in data set [3] (setting [5]) is on record as 1.33 ± 0.21; in data set [3] (bleomycin + Y-27632 0.1 μg/kg) it was 2.79 ± 0.26; in data set [3] (bleomycin + Y-27632 10 μg/kg, p<0.01) it was 1.85 ± 0.26**; in data set [3] (bleomycin + Y-27632 100 μg/kg, p<0.05), 1.98 ± 0.41*. In addition, the “Dose suppressing the increase of Aschcroft score due to bleomycin administration” value in data set [3] is given as “not less than 10 μg/kg”.

For the compound bleomycin, the “Expression amount of ROCK-II gene (ROCK-II mRNA/GAPDH mRNA) vs bleomycin non-administration group” value with ROCK-II gene (day 7 and day 21, bleomycin total dose 200 mg/kg i.p.) was “significantly high”. In the data set on ROCK-II gene (day 21, bleomycin total dose 200 mg/kg i.p.), the “Increase of expression amount of ROCK-II gene relative to bleomycin non-administration group” value was “about 9 times”. Also, in data set [3] (bleomycin alone (total dose 200 mg/kg i.p.)), the “Aschcroft score (mean ± standard error)” value was 3.54 ± 0.43.
